Where “and” joins values, the source holds several entries; their conditions need not be identical. Equal values may be shown once. Read-outs that look alike come from different tables or passages of the source.
Legend:
MDA-MB-231/ATCC = assay: NCI-60 DTP Human Tumor Cell Line Screen; format: cell-based; settings: Breast Cancer, 48 h
SNB-19 = assay: NCI-60 DTP Human Tumor Cell Line Screen; format: cell-based; settings: SNB-19, CNS Cancer, 48 h
OVCAR-4 = assay: NCI-60 DTP Human Tumor Cell Line Screen; format: cell-based; settings: OVCAR-4, Ovarian Cancer, 48 h
SN12C = assay: NCI-60 DTP Human Tumor Cell Line Screen; format: cell-based; settings: Renal Cancer, 48 h
P. falciparum (NF54) = assay: Antimalarial [3H]-hypoxanthine incorporation assay; format: cell-based, Plasmodium falciparum; settings: P. falciparum (NF54); read-out: IC50
Method: Plasmodium falciparum culture. NF54 P. falciparum parasites were maintained in O+ positive erythrocytes (obtained weekly from a rotating pool of screened healthy donors) in complete medium containing RPMI (Sigma), 25 mM N-2-hydroxyethylpiperazine-N′-2-ethanesulfonic acid (HEPES; Sigma), 27 mM sodium bicarbonate (Sigma) and 10% heat-inactivated male O+ serum in non-vented flasks. Hematocrit was maintained at 2.4%. Flasks were gassed with a mixture of 3% oxygen, 4% carbon dioxide, 93% nitrogen. Parasitemia was maintained at 0.1-5% by changing medium and erythrocytes two to three times a week.
Antimalarial activity was measured using a [^3H]-hypoxanthine incorporation assay as described previously (Desjardins et al., Antimicrob. Agents Chemother., vol. 16, p. 710, 1979; Milhous et al., Antimicrob. Agents Chemother., vol. 27, np. 525, 1985). […] For surveys, each concentration was assayed in triplicate while in expansions, each concentration was assayed in quadruplicate. To each well, 0.64 μCi of [^3H]-hypoxanthine (10-30 Ci/mmol; Perkin Elmer) was added and the plate was incubated for an additional 20 to 24 h. Samples from each well were harvested on filter paper and tritium counts were measured on the Beckmann Coulter LS6500 scintillation counter. […] Values considered as outliers according to Chauvenet's criterion were discarded and dropped from analysis. One survey and at least one expansion was performed for each compound.

SK-MEL-5 = assay: NCI-60 DTP Human Tumor Cell Line Screen; format: cell-based; settings: SK-MEL-5, Melanoma, 48 h
UACC-257 = assay: NCI-60 DTP Human Tumor Cell Line Screen; format: cell-based; settings: UACC-257, Melanoma, 48 h
HL-60(TB) = assay: NCI-60 DTP Human Tumor Cell Line Screen; format: cell-based; settings: Leukemia, 48 h
NCI-H460 = assay: NCI-60 DTP Human Tumor Cell Line Screen; format: cell-based; settings: NCI-H460, Non-Small Cell Lung Cancer, 48 h
HCC-2998 = assay: NCI-60 DTP Human Tumor Cell Line Screen; format: cell-based; settings: HCC-2998, Colon Cancer, 48 h
A549 NSCLC cells = assay: MTS cell proliferation assay, A549; format: cell-based; settings: for IC50: A549, MTS, read-out: IC50 (decreased cell proliferation by 50% compared to control)
Method: Cell proliferation was determined using the CellTiter 96 Aqueous One Solution Cell Proliferation Assay MTS assay. A549 NSCLC cells were plated at 1.5×10^3 cells per well in flat bottom 96 well plates in 99 μL of media and allowed to adhere overnight. The drugs were serially diluted in 100% DMSO. For each drug treatment group, 1 μL of a 100× stock solution was added to each well for a final DMSO concentration of 1%. Cells were treated for 24, 48 or 72 hours. Cells were incubated with MTS dye (20 μL well^−1) for 40 min to 2 h. Absorbance at 490 nm was determined using a SpectraMax M2 (Molecular Devices) plate reader. The percent cell proliferation was calculated by converting the experimental absorbance to percentage of control, which was then plotted vs. drug concentration. The IC50 values were determined using a non-linear dose-response analysis in GraphPad Prism version 4.0. The IC50 is defined as the concentration of drug needed to cause a 50% decrease in proliferation compared to vehicle control. […]

PC-3 = assay: NCI-60 DTP Human Tumor Cell Line Screen; format: cell-based; settings: PC-3, Prostate Cancer, 48 h
UACC-62 = assay: NCI-60 DTP Human Tumor Cell Line Screen; format: cell-based; settings: UACC-62, Melanoma, 48 h
[1] = In vivo tolerance study, I.V. dosing (tail vein); set-up: species or system Balb/c mice
Method: Ten Balb/c mice were split into three groups: untreated, vehicle and clodronate prodrug. Untreated mice received no treatment or injection. The vehicle was 100 μL 10% cremaphor in ddH20 injected into the tale vein. 100 μL of 3 mM Clodronate Prodrug dissolved in 10% cremaphor in ddH20. (100 μL of 3 mM is about 14 mg/kg).

MCF7 = assay: NCI-60 DTP Human Tumor Cell Line Screen; format: cell-based; settings: MCF7, Breast Cancer, 48 h
HT29 = assay: NCI-60 DTP Human Tumor Cell Line Screen; format: cell-based; settings: HT29, Colon Cancer, 48 h
ACHN = assay: NCI-60 DTP Human Tumor Cell Line Screen; format: cell-based; settings: Renal Cancer, 48 h
MOLT-4 = assay: NCI-60 DTP Human Tumor Cell Line Screen; format: cell-based; settings: MOLT-4, Leukemia, 48 h

## CN(CCCCCl)P(=O)(OCc1ccc([N+](=O)[O-])cc1)C(Cl)(Cl)P(=O)(OCc1ccc([N+](=O)[O-])cc1)N(C)CCCCCl (centres unmarked) [compound 14]
MDA-MB-231/ATCC
  Log10GI50: −5.51
  Log10LC50: >−4.00
  Log10TGI: >−4.00
SNB-19
  Log10GI50: −5.30
  Log10LC50: >−4.00
  Log10TGI: >−4.00
OVCAR-4
  Log10GI50: −5.54
  Log10LC50: >−4.00
  Log10TGI: >−4.00
SN12C
  Log10GI50: −5.42
  Log10LC50: >−4.00
  Log10TGI: >−4.00
P. falciparum (NF54)
  IC50: 0.98 ± 0.21 µM
SK-MEL-5
  Log10GI50: −5.69
  Log10LC50: −5.05
  Log10TGI: −5.37
UACC-257
  Log10GI50: −5.56
  Log10LC50: >−4.00
  Log10TGI: −5.10
HL-60(TB)
  Log10GI50: −5.39
  Log10LC50: >−4.00
  Log10TGI: >−4.00
NCI-H460
  Log10GI50: −5.42
  Log10LC50: >−4.00
  Log10TGI: >−4.00
HCC-2998
  Log10GI50: −5.25
  Log10LC50: −4.46
  Log10TGI: >−4.00
A549 NSCLC cells; 48 and 72 h
  growth inhibitory effect on A549 cells: complete growth inhibition
A549 NSCLC cells; 24 h
  growth inhibitory effect on A549 cells: partial growth inhibitory effect
  IC50: 7.6 ± 3 µM
A549 NSCLC cells; A549 (NSCLC), MTS, table of Example 3
  EC50: 8 µM
A549 NSCLC cells; 48 h
  IC50: 5.2 ± 1 µM
A549 NSCLC cells; 72 h
  IC50: 4.4 ± 2 µM
PC-3
  Log10GI50: −5.44
  Log10LC50: >−4.00
  Log10TGI: >−4.00
UACC-62
  Log10GI50: −5.70
  Log10LC50: −4.11
  Log10TGI: −5.30
[1]; Mar. 21, 2011, i.v. 100 μL of 3 mM (about 14 mg/kg), individual mice, listed as cloprodrug
  Mouse weight: 15.9 g and 14.5 g and 15.6 g
[1]; Mar. 21 to Mar. 28, 2011, i.v. about 14 mg/kg, individual mice, listed as cloprodrug
  Δ in weight: 2.2 g and 2.7 g and 0.6 g
[1]; Mar. 23, 2011, i.v. about 14 mg/kg, individual mice, listed as cloprodrug
  Mouse weight: 17.6 g and 16.4 g and 16.2 g
[1]; Mar. 25, 2011, i.v. about 14 mg/kg, individual mice, listed as cloprodrug
  Mouse weight: 18.2 g and 16.8 g and 16.4 g
[1]; Mar. 28, 2011, i.v. about 14 mg/kg, individual mice, listed as cloprodrug
  Mouse weight: 18.1 g and 17.2 g and 16.2 g
[1]; i.v. about 14 mg/kg
  behavior: no unusual behavior observed
[1]; i.v. about 14 mg/kg vs vehicle and untreated
  difference in weight between the three treatment groups: no significant difference in weight
MCF7
  Log10GI50: −5.47
  Log10LC50: >−4.00
  Log10TGI: −4.82
HT29
  Log10GI50: −5.48
  Log10LC50: >−4.00
  Log10TGI: −4.65
ACHN
  Log10GI50: −5.49
  Log10LC50: >−4.00
  Log10TGI: >−4.00
MOLT-4
  Log10GI50: −5.53
  Log10LC50: >−4.00
  Log10TGI: −5.04
